Measurements taken from paper PMC10818312, “Ocular and Plasma Pharmacokinetics of Enavogliflozin Ophthalmic Solution in Preclinical Species” (Pharmaceuticals, 2024).

Legend:
[1] = Plasma PK after single ocular administration in beagle dogs; type: in vivo; conditions: male, Ridglan beagle, topical or ocular, 100 ug, beagle dog plasma, single ocular 100 μg
Procedure: (§1) We used 7-week-old male Brown Norway rats (Central Lab. Animal Inc., Seoul, Republic of Korea) weighing 140–180 g. The rats were acclimated for a minimum of 7 days. For the evaluation of plasma PKs after ocular administration, a single dose of 5 μL of DWRX2008 0.5% (25 μg of enavogliflozin) was topically applied on the left eye. One-year-old male Ridglan beagle dogs (JOHN Bio Co., Nantong, China) weightng 8–10 kg were chosen. The beagle dogs experienced a withdrawal period of over one month. For the evaluation of plasma PKs after ocular administration, a single dose of 20 μL of DWRX2008 0.5% (100 μg of enavogliflozin) was ocularly administered on the left eyes. In rats and beagle dogs, DWRX2008 was administered to the left eye for evaluation of safety and systemic absorption. Male New Zealand White rabbits (Samtako Biokorea, Osan, Republic of Korea) weighing 2.0–2.5 kg were used in PK studies after eye drop instillations. The rabbits were acclimated for 7 days. […]
(§2) A total of three rats were sampled 10 times at 0 (pre-dose), 0.08, 0.25, 0.5, 1, 2, 4, 8, 12 and 24 h post-dose. […] After centrifugation at 14,000 rpm for 5 min, 3 μL of sample was analyzed by LC-MS [24]. […] Finally, 3 μL of sample was analyzed by LC-MS [24]. […] Finally, 3 μL of sample was analyzed by LC-MS [24]. […]

[2] = Plasma PK after single ocular administration in rabbits; type: in vivo; conditions: male, New Zealand White, topical or ocular, 400 ug, rabbit plasma, single ocular 400 μg (both eye)
Procedure: as §1, §2

[3] = Melanin binding capability; type: in vitro ADME
[4] = male, New Zealand White, rabbit, in vivo
Procedure: (§3) We used 9-month-old male rabbits (Envigo, Denver, PA, USA) weighing 3.1–3.7 kg in the PK studies involving a single topical ocular administration of [^14C] enavogliflozin.
(§4) The appropriate quantity of radiolabeled and non-radiolabeled test formulation (if required) was combined with the vehicle to meet the dose level (~77 μCi/eye). […] A single volumetric dose of 30 μL was administered to each eye (600 μg/eye, 1200 μg/head).
(§5) Two animals were euthanized by Euthasol® administration into the marginal ear vein at each predetermined time point (0.5, 1, 2, 4, 8, 24, and 48 h) post-instillation. Subsequently, their heads were frozen in a hexane/dry-ice bath and embedded in a 5% carboxymethylcellulose matrix. The embedded heads were sectioned at 30 μm thickness with less than 20% variation.
(§6) The primary PK parameters for concentrations of enavogliflozin were explored using a noncompartmental method of Phoenix WinNonlin 8.3 (Certara, L.P., Princeton, NJ, USA). The Cmax and Tmax were directly accepted from observed data. The AUC0–t was calculated using the linear trapezoidal method based on the mean radioactivity concentration of both eyes for ocular PKs in rabbits and the linear-up/log-down trapezoidal method for plasma PKs in rats, beagle dogs, and rabbits.

hSGLT2 = conditions: no reference given; read-out: IC50 against hSGLT2; cited from earlier work
[5] = no reference given; cited from earlier work
[6] = Retina/plasma drug concentration ratio in rats; type: in vivo; conditions: mean (range)
hERG = system: hERG; set-up: method as in earlier work; conditions: ref Daewoong Therapeutics, DWRX2008-IB-01 Investigator’s brochure, data on file; cited from earlier work
[7] = Plasma and retinal concentration after single oral administration in rabbits; type: in vivo, male New Zealand White rabbits
[8] = Plasma PK after single ocular administration in rats; type: in vivo; conditions: male, Brown Norway, topical or ocular, 25 ug, rat plasma, single ocular 25 μg
Procedure: as §1, §2

[9] = Ocular distribution and blood exposure of radioactivity by autoradiography after single ocular [14C] enavogliflozin (terminal sampling); conditions: single ocular 600 μg/eye, rabbits
Procedure: as §3, §4, §5, §6

[10] = left eye, median [min, max], n = 3

| Molecule | Tmax [1, 10] [h] | half-life ([1]; mean ± SD (% CV)) [h] | half-life ([2]; mean ± SD (% CV)) [h] | Tmax ([2]; median [min, max], n = 6) [h] | melanin binding capability [3] | time until which retinal concentration remained above the IC50 of SGLT2 [4] [h] | IC50 (hSGLT2) [µM] | partition coefficient [Log P] [5] | mean retina/plasma (R/P) drug concentration ratio ([6]; 1 h after administration) | mean retina/plasma (R/P) drug concentration ratio ([6]; 3 h after administration) | mean retina/plasma (R/P) drug concentration ratio ([6]; 6 h after administration) | IC50 (hERG) [µM] | Tmax ([7]; male, New Zealand White, 400 ug, rabbit plasma, single oral 400 μg, median [min, max], n = 6) [h] | retinal enavogliflozin concentration ([7]; rabbits, oral administration, same dose (400 μg)) | Tmax [8, 10] [h] | half-life ([8]; mean ± SD (% CV)) [h] | AUC0–t in whole blood as % of corresponding value in the plasma ([9]; radioactivity) [%] | Cmax in whole blood as % of corresponding value in the plasma ([9]; radioactivity) [%] | Radioactivity in the optic nerve [9] |
| --- | --- | --- | --- | --- | --- | --- | --- | --- | --- | --- | --- | --- | --- | --- | --- | --- | --- | --- | --- |
| OC[C@H]1O[C@@H](c2cc(Cc3ccc(C4CC4)cc3)c(Cl)c3c2CCO3)[C@H](O)[C@@H](O)[C@@H]1O [enavogliflozin] | 1 | 10.6 | 3.6 | 0.5 | approximately 33% | 24 | 0.00043 | 2.13 | 3.3 (range: 0.6–6.6) | 1.3 (range: 0.2–2.2) | 2.6 (range: 1.4–3.3) | 44.9 | 0.8 | below the lower limit of quantification | 4 | 5.4 | – | – | – |
| [^14C] enavogliflozin | – | – | – | – | – | – | – | – | – | – | – | – | – | – | – | – | 64.0 | 73.4 | barely detectable |
